Test results taken from patent publication US20240415819A1, “MACROCYCLIC COMPOUNDS AS PROTEASOME SUBUNIT BETA TYPE-5 INHIBITORS” (Lead Discovery Center GmbH, priority 2021, published 2024).
Where two headings read alike, the source gives them in different places.

Columns and labels:
[1] = system: A549 (human lung carcinoma cell line); assay: Glo assay of A549 cells (Table 3; ProteasomeGlo plating scheme); type: cell-based; conditions: Homo sapiens
Method in brief: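 IC50 values (nM) come from a cell-based chymotrypsin-like Proteasome-Glo luminescence assay. Compound exposure ran 105 min at 37° C.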

HT-29 cells = assay: CellTiter-Glo luminescent cell viability assay with HT-29 cells (72h incubation); type: cell-based, human; conditions: Homo sapiens, HT-29, HT29 cells, read-out: CTG HT29
Method in brief: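 400 cells per well in DMEM/10% FCS were dosed after 24 h and kept 72 h at 37 °C, 5% CO2. ATP-based luminescence (CellTiter-Glo) normalized to DMSO and 10 μM staurosporine controls; IC50 by dose-response fit.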

[2] = A549 cells, read-out: PGLo A549

| Compound | IC50 [1, 2] | IC50 (HT-29 cells) | IC50 ([1]; A549, read-out: PGLo A549 [nM]) |
| --- | --- | --- | --- |
| Cc1ccc2cc1CNC(=O)[C@H](CCc1ccccc1)NC(=O)[C@@H](NC(=O)C1(C)CCOCC1)CC(=O)N1CCCC(CCO2)C1 (stereo partly drawn) [Compound 288, 4-methyl-N-((9S,12S)-5^4-methyl-8,11,14-trioxo-9-phenethyl-4-oxa-7,10-diaza-1(3,1)-piperidina-5(1,3)-benzenacyclotetradecaphane-12-yl)tetrahydro-2H-pyran-4-carboxamide] | 100 to 500 nM | < 100 nM |  |
| CCOC(=O)N[C@H]1CC(=O)N2CCCC(CCOc3ccc(C)c(c3)CNC(=O)[C@H](CCc3ccccc3)NC1=O)C2 (stereo partly drawn) [Compound 39, ethyl ((9S,12S)-5^4-methyl-8,11,14-trioxo-9-phenethyl-4-oxa-7,10-diaza-1(3,1)-piperidina-5(1,3)-benzenacyclotetradecaphane-12-yl)carbamate] |  | < 100 nM | < 100 nM |
| CC(=O)N[C@H]1CCCC(=O)N2CCOC(CCOc3ccc(C)c(c3)CNC(=O)[C@H](CCc3ccccc3)NC1=O)C2 (stereo partly drawn) [Compound 186, N-((9S,12S)-5^4-methyl-8,11,16-trioxo-9-phenethyl-4-oxa-7,10-diaza-1(2,4)-morpholina-5(1,3)-benzenacyclohexadecaphane-12-yl)acetamide] | 100 to 500 nM | 100 to 500 nM |  |
| Cc1ccc2cc1CNC(=O)[C@H](CCc1ccccc1)NC(=O)[C@@H](NC(=O)CCc1ccc(-c3ccccc3)cc1)CC(=O)N1CCCC(CCO2)C1 (stereo partly drawn) [Compound 176, 3-([1,1′-biphenyl]-4-yl)-N-((9S,12S)-5^4-methyl-8,11,14-trioxo-9-phenethyl-4-oxa-7,10-diaza-1(3,1)-piperidina-5(1,3)-benzenacyclotetradecaphane-12-yl)propanamide] | < 100 nM | < 100 nM |  |
| Cc1ccc2cc1CNC(=O)[C@@H](CCc1ccccc1)NC(=O)[C@H](NC(=O)OCc1ccccc1)CC(=O)N1CCC[C@H](CCO2)C1 [Compound 290, benzyl ((13R,9R,12R)-5^4-methyl-8,11,14-trioxo-9-phenethyl-4-oxa-7,10-diaza-1(3,1)-piperidina-5(1,3)-benzenacyclotetradecaphane-12-yl)carbamate] | > 5000 nM | 100 to 500 nM |  |
| Cc1ccc2cc1CNC(=O)[C@H](CCc1ccccc1)NC(=O)[C@@H](NC(=O)CCc1ccc3[nH]ccc3c1)CC(=O)N1CCCC(CCO2)C1 (stereo partly drawn) [Compound 182, 3-(1H-indol-5-yl)-N-((9S,12S)-5^4-methyl-8,11,14-trioxo-9-phenethyl-4-oxa-7,10-diaza-1(3,1)-piperidina-5(1,3)-benzenacyclotetradecaphane-12-yl)propanamide] | < 100 nM | < 100 nM |  |
| CC(=O)N[C@H]1CC(=O)N2CCOC(CCOc3ccc(C)c(c3)CNC(=O)[C@H](CCc3ccccc3)NC1=O)C2 (stereo partly drawn) [Compound 258, N-((9S,12S)-5^4-methyl-8,11,14-trioxo-9-phenethyl-4-oxa-7,10-diaza-1(2,4)-morpholina-5(1,3)-benzenacyclotetradecaphane-12-yl)acetamide] | 500 to 1000 nM | 100 to 500 nM |  |
| COCCOCCOCCOC(=O)N[C@H]1CC(=O)N2CCCC(CCOc3ccc(C)c(c3)CNC(=O)[C@H](CCc3ccccc3)NC1=O)C2 (stereo partly drawn) [Compound 220, 2-(2-(2-methoxyethoxy)ethoxy)ethyl ((9R,12R)-5^4-methyl-8,11,14-trioxo-9-phenethyl-4-oxa-7,10-diaza-1(3,1)-piperidina-5(1,3)-benzenacyclotetradecaphane-12-yl)carbamate] |  | < 100 nM | < 100 nM |
| CC(=O)N[C@H]1CCCC(=O)N2CC3CC(Oc4ccc(C)c(c4)CNC(=O)[C@H](CCc4ccccc4)NC1=O)C3C2 (stereo partly drawn) [Compound 191, N-((11R,15S,7S,10S)-3^4-methyl-6,9,14-trioxo-7-phenethyl-2-oxa-13,5,8-triaza-1(7,3)-bicyclo[3.2.0]heptana-3(1,3)-benzenacyclotetradecaphane-10-yl)acetamide] | 1000 to 5000 nM | 1000 to 5000 nM |  |

Continued, in another order:

| IC50 [1, 2] | IC50 (HT-29 cells) | Compound | IC50 ([1]; A549, read-out: PGLo A549 [nM]) |
| --- | --- | --- | --- |
| 100 to 500 nM | 100 to 500 nM | Cc1ccc2cc1CNC(=O)[C@H](CCc1ccccc1)NC(=O)[C@@H](Nc1ccccn1)CC(=O)N1CCCC(CCO2)C1 (stereo partly drawn) [Compound 36, (9S,12S)-5^4-methyl-9-phenethyl-12-(pyridin-2-ylamino)-4-oxa-7,10-diaza-1(3,1)-piperidina-5(1,3)-benzenacyclotetradecaphane-8,11,14-trione] |  |
| 100 to 500 nM | 1000 to 5000 nM | Cc1ccc2cc1CNC(=O)C(CCc1cccnc1)NC(=O)CCC(=O)N1CCCC(CCO2)C1 (stereo not shown) [Compound 51, 5^4-methyl-9-(2-(pyridin-3-yl)ethyl)-4-oxa-7,10-diaza-1(3,1)-piperidina-5(1,3)-benzenacyclotetradecaphane-8,11,14-trione] |  |
| < 100 nM | < 100 nM | COc1ccc(CC(=O)N[C@H]2CC(=O)N3CCCC(CCOc4ccc(C)c(c4)CNC(=O)[C@H](CCc4ccccc4)NC2=O)C3)cc1OC (stereo partly drawn) [Compound 63, 2-(3,4-dimethoxyphenyl)-N-((9S,12S)-5^4-methyl-8,11,14-trioxo-9-phenethyl-4-oxa-7,10-diaza-1(3,1)-piperidina-5(1,3)-benzenacyclotetradecaphane-12-yl)acetamide] |  |
| < 100 nM | 100 to 500 nM | Cc1ccc2cc1CNC(=O)[C@H](CCc1ccccc1)NC(=O)[C@@H](NC(=O)C1(C)CCNCC1)CC(=O)N1CCCC(CCO2)C1 (stereo partly drawn) [Compound 136, 4-methyl-N-((9S,12S)-5^4-methyl-8,11,14-trioxo-9-phenethyl-4-oxa-7,10-diaza-1(3,1)-piperidina-5(1,3)-benzenacyclotetradecaphane-12-yl)piperidine-4-carboxamide] |  |
| < 100 nM | < 100 nM | C=CS(=O)(=O)N[C@H]1CC(=O)N2CCCC(CCOc3ccc(C)c(c3)CNC(=O)[C@H](CCc3ccccc3)NC1=O)C2 (stereo partly drawn) [Compound 180, N-((9S,12S)-5^4-methyl-8,11,14-trioxo-9-phenethyl-4-oxa-7,10-diaza-1(3,1)-piperidina-5(1,3)-benzenacyclotetradecaphane-12-yl)ethenesulfonamide] |  |
| < 100 nM | < 100 nM | Cc1ccc2cc1CNC(=O)[C@H](CCc1ccccc1)NC(=O)[C@@H](NC(=O)C1CC(F)(F)CN1)CC(=O)N1CCCC(CCO2)C1 (stereo partly drawn) [Compound 135, (2S)-4,4-difluoro-N-((9S,12S)-5^4-methyl-8,11,14-trioxo-9-phenethyl-4-oxa-7,10-diaza-1(3,1)-piperidina-5(1,3)-benzenacyclotetradecaphane-12-yl)pyrrolidine-2-carboxamide] |  |
| 100 to 500 nM | 100 to 500 nM | Cc1ccc2cc1CNC(=O)[C@H](CCc1ccccc1)NC(=O)[C@@H](Nc1nc3ccccc3[nH]1)CC(=O)N1CCCC(CCO2)C1 (stereo partly drawn) [Compound 45, (9S,12S)-12-((1H-benzo[d]imidazol-2-yl)amino)-5^4-methyl-9-phenethyl-4-oxa-7,10-diaza-1(3,1)-piperidina-5(1,3)-benzenacyclotetradecaphane-8,11,14-trione] |  |
| < 100 nM | < 100 nM | Cc1ccc2cc1CNC(=O)[C@H](CCc1ccccc1)NC(=O)[C@@H](NC(=O)Cc1ccc(N)cc1)CC(=O)N1CCCC(CCO2)C1 (stereo partly drawn) [Compound 128, 2-(4-aminophenyl)-N-((9S,12S)-5^4-methyl-8,11,14-trioxo-9-phenethyl-4-oxa-7,10-diaza-1(3,1)-piperidina-5(1,3)-benzenacyclotetradecaphane-12-yl)acetamide] |  |
| < 100 nM | < 100 nM | Cc1ccc2cc1CNC(=O)[C@H](CCc1ccccc1)NC(=O)[C@@H](NC(=O)CN1CCCC1)CC(=O)N1CCCC(CCO2)C1 (stereo partly drawn) [Compound 89, N-((9S,12S)-5^4-methyl-8,11,14-trioxo-9-phenethyl-4-oxa-7,10-diaza-1(3,1)-piperidina-5(1,3)-benzenacyclotetradecaphane-12-yl)-2-(pyrrolidin-1-yl)acetamide] |  |
| 100 to 500 nM | < 100 nM | Cc1ccc2cc1CNC(=O)[C@H](CCc1ccccc1)NC(=O)[C@@H](NC(=O)C1CCN1)CC(=O)N1CCCC(CCO2)C1 (stereo partly drawn) [Compound 160, (2R)-N-((9S,12S)-5^4-methyl-8,11,14-trioxo-9-phenethyl-4-oxa-7,10-diaza-1(3,1)-piperidina-5(1,3)-benzenacyclotetradecaphane-12-yl)azetidine-2-carboxamide] |  |
| 1000 to 5000 nM | 1000 to 5000 nM | Cc1ccc2cc1CNC(=O)[C@H](Cc1ccccc1)NC(=O)CCC(=O)N1CCCC(CCO2)C1 (stereo partly drawn) [Compound 79, (9S)-9-benzyl-5^4-methyl-4-oxa-7,10-diaza-1(3,1)-piperidina-5(1,3)-benzenacyclotetradecaphane-8,11,14-trione] |  |
| 100 to 500 nM | < 100 nM | Cc1ccc2cc1CNC(=O)[C@H](CCc1ccccc1)NC(=O)[C@@H](NC(=O)c1n[nH]c3ccccc13)CC(=O)N1CCCC(CCO2)C1 (stereo partly drawn) [Compound 60, N-((9S,12S)-5^4-methyl-8,11,14-trioxo-9-phenethyl-4-oxa-7,10-diaza-1(3,1)-piperidina-5(1,3)-benzenacyclotetradecaphane-12-yl)-1H-indazole-3-carboxamide] |  |
| 500 to 1000 nM | 1000 to 5000 nM | Cc1ccc2cc1CNC(=O)[C@H](Cc1c[nH]c3ccccc13)NC(=O)CCC(=O)N1CCCC(CCO2)C1 (stereo partly drawn) [Compound 77, (9S)-9-((1H-indol-3-yl)methyl)-5^4-methyl-4-oxa-7,10-diaza-1(3,1)-piperidina-5(1,3)-benzenacyclotetradecaphane-8,11,14-trione] |  |
| 1000 to 5000 nM | 100 to 500 nM | Cc1cc2cc(c1C)CNC(=O)[C@H](Cc1c[nH]c3ccccc13)NC(=O)CCC(=O)N1CCCC(CCO2)C1 (stereo partly drawn) [Compound 120, (9S)-9-((1H-indol-3-yl)methyl)-5^4,5^5-dimethyl-4-oxa-7,10-diaza-1(3,1)-piperidina-5(1,3)-benzenacyclotetradecaphane-8,11,14-trione] |  |
